Data set [1] can be described thus: Half-life value of the compound. Type of data set: ADME.
A short description of data set [2]: Loss of first equivalent halide ion using Chloride ion electrode experiments. Type of data set: ADME.

`O=P(O)(NCCCl)NCCCl` [PALIFOSFAMIDE] returned a half-life in data set [1] of 1.15 h. Besides, the “k x10e3” value in data set [2] is reported as 10 min-1.

By half-life is commonly meant the time needed for the level to fall by half in the phase considered. A low value points to rapid decline.

The values above are taken from ChEMBL document CHEMBL1125873 (J Med Chem, 1991).
